Measurements published in patent publication US20040005354A1, “Oral trimethobenzamide formulations and methods” (King Pharmaceuticals, Inc., priority 2002, published 2004).

Assay: Safety assessment (adverse events, laboratory tests) in the four-way crossover study
Type: in vivo, human (healthy subjects)
Source text: Seventy-four healthy, non-smoking, male & female subjects, 18-65 years old were enrolled in this study. A total of 68 subjects completed all the requirements of the protocol. There were no enrollment violations. However, nine of the 74 subjects began the study during the third period of the initial group of subjects. All 74 subjects who received at least one dose of study medication were included in the safety analysis.
This study was a single center, randomized, open-label, 4-way crossover study in healthy subjects. Dosing was administered in the fasted state. Seventy-four (74) subjects were randomized into the study. All seventy-four subjects received one or more doses of study medication and are therefore included in the safety assessment. On Treatment Day 1 of the first treatment period, each subject was randomized to receive one of four possible study treatment sequences. The treatment groups consisted of the four treatments administered sequentially as DCAB, ADBC, BACD or CBDA. These treatments are shown below.
A signed informed consent was obtained from each subject. For screening purposes, the following procedures were required of each subject and were performed by the clinical site within 30 days prior to the study: a complete physical examination including a medical history, vital signs, clinical laboratory safety tests on blood and urine, medications taken prior to and during the study, and a serum pregnancy test for female subjects.
During the treatments, temperature, blood pressure, heart rate and respiratory rate were monitored as a safety measure. A physical examination and clinical laboratory tests were repeated at the completion of the study. Subjects were observed and questioned throughout the study for the occurrence of any adverse events.
A total of 28 adverse events (AEs) were experienced; 27 were treatment emergent. Twenty-one (21) of these were assessed as related to study treatment. All related AEs are known to occur with trimethobenzamide and were primarily mild or moderate in intensity. One (1) severe AE occurred in one subject which was judged as unrelated to study treatment-severe pharyngitis. […] A summary of treatment emergent adverse events (AEs) is presented in Table 6 using the preferred medical term.

[1] = 74 subjects, all four treatment periods

Q: For “N-[2-(dimethylamino)-ethoxy]-3,4,5-trimethoxybenzamide hydrochloride [trimethobenzamide hydrochloride]”, which “subjects with decreased red blood cell count at the end of treatment” value (5 percent prior to treatment) is on record?
A: The value was 11%.

Q: And the “subjects with low hematocrit at the end of treatment” value (8 percent prior to treatment)?
A: Its value is 34%.

Q: And the “AEs assessed as related to study treatment” value [1]?
A: The value was 21.

Q: What about the “serious AEs” value [1] of the same substance?
A: Its value is “no serious AEs”.

Q: And the “total adverse events (AEs) experienced” value [1]?
A: Its value is 28.

Q: And the “treatment emergent AEs” value [1]?
A: Its value is 27.

Q: And the “dizziness, number” value (all four treatment periods)?
A: Its value is 3.

Q: And the “neurologic complaints, number” value (all four treatment periods)?
A: The value was 15.

Q: What about the “paresthesias, number” value (all four treatment periods) of the same substance?
A: Its value is 3.

Q: What about the hematocrit mean change (end of treatment vs prior) of the same substance?
A: Its hematocrit mean change is 2.3%.

Q: And the hemoglobin mean change (end of treatment vs prior)?
A: The hemoglobin mean change was 0.6 g/dL.

Q: What about the “red blood cell count mean change” value (end of treatment vs prior) of the same substance?
A: Its value is 2e+11 L⁻¹.

Q: What about the “overall safety and tolerability” value (in vivo) of the same substance?
A: The value was “safe and well tolerated”.

Q: And the “subjects with normal hemoglobin prior to treatment who had low hemoglobin at the end of treatment” value (in vivo)?
A: The value was 13%.

Q: What about the “headaches, number” value (seen in a total of 7 subjects) of the same substance?
A: Its value is 8.

Q: And the “ABDOMINAL PAIN, subjects %” value (sequence A D B C (N = 20))?
A: The value was 5.0%.

Q: And the “ABDOMINAL PAIN, subjects n” value (sequence A D B C (N = 20))?
A: The value was 1.

Q: And the “CONJUNCTIVITIS, subjects %” value (sequence A D B C (N = 20))?
A: The value was 5.0%.

Q: What about the “CONJUNCTIVITIS, subjects n” value (sequence A D B C (N = 20)) of the same substance?
A: The value was 1.

Q: What about the “DIARRHEA, subjects %” value (sequence A D B C (N = 20)) of the same substance?
A: Its value is 0.0%.

Q: What about the “DIARRHEA, subjects n” value (sequence A D B C (N = 20)) of the same substance?
A: Its value is 0.

Q: What about the “DIZZINESS, subjects %” value (sequence A D B C (N = 20)) of the same substance?
A: Its value is 15.0%.

Q: And the “DIZZINESS, subjects n” value (sequence A D B C (N = 20))?
A: Its value is 3.

Q: What about the “EDEMA, PALMAR, subjects %” value (sequence A D B C (N = 20)) of the same substance?
A: Its value is 5.0%.

Q: What about the “EDEMA, PALMAR, subjects n” value (sequence A D B C (N = 20)) of the same substance?
A: Its value is 1.

Q: And the “ERYTHEMA, EXTERNAL NOSE, subjects %” value (sequence A D B C (N = 20))?
A: Its value is 0.0%.

Q: What about the “ERYTHEMA, EXTERNAL NOSE, subjects n” value (sequence A D B C (N = 20)) of the same substance?
A: The value was 0.

Q: And the “ERYTHEMA, PALMAR, subjects %” value (sequence A D B C (N = 20))?
A: Its value is 5.0%.

Q: What about the “ERYTHEMA, PALMAR, subjects n” value (sequence A D B C (N = 20)) of the same substance?
A: The value was 1.

Q: And the “HEADACHE, subjects %” value (sequence A D B C (N = 20))?
A: The value was 5.0%.

Q: And the “HEADACHE, subjects n” value (sequence A D B C (N = 20))?
A: The value was 1.

Q: And the “HYPOTONIA, subjects %” value (sequence A D B C (N = 20))?
A: Its value is 0.0%.

Q: What about the “HYPOTONIA, subjects n” value (sequence A D B C (N = 20)) of the same substance?
A: Its value is 0.

Q: What about the “INJECTION SITE REACTION, subjects %” value (sequence A D B C (N = 20)) of the same substance?
A: The value was 0.0%.

Q: What about the “INJECTION SITE REACTION, subjects n” value (sequence A D B C (N = 20)) of the same substance?
A: Its value is 0.

Q: What about the “LARYNGISMUS, subjects %” value (sequence A D B C (N = 20)) of the same substance?
A: Its value is 0.0%.

Q: And the “LARYNGISMUS, subjects n” value (sequence A D B C (N = 20))?
A: Its value is 0.

Q: What about the “LEG CRAMPS, subjects %” value (sequence A D B C (N = 20)) of the same substance?
A: The value was 0.0%.

Q: And the “LEG CRAMPS, subjects n” value (sequence A D B C (N = 20))?
A: The value was 0.

Q: What about the “NAUSEA AND VOMITING, subjects %” value (sequence A D B C (N = 20)) of the same substance?
A: The value was 5.0%.

Q: What about the “NAUSEA AND VOMITING, subjects n” value (sequence A D B C (N = 20)) of the same substance?
A: Its value is 1.

Q: And the “NAUSEA, subjects %” value (sequence A D B C (N = 20))?
A: Its value is 5.0%.

Q: What about the “NAUSEA, subjects n” value (sequence A D B C (N = 20)) of the same substance?
A: The value was 1.

Q: And the “Number of Subject With At Least one AE, %” value (sequence A D B C (N = 20))?
A: Its value is 25.0%.

Q: What about the “Number of Subject With No AE, %” value (sequence A D B C (N = 20)) of the same substance?
A: The value was 75.0%.

Q: What about the “PARESTHESIA, subjects %” value (sequence A D B C (N = 20)) of the same substance?
A: The value was 0.0%.

Q: And the “PARESTHESIA, subjects n” value (sequence A D B C (N = 20))?
A: The value was 0.

Q: And the “PHARYNGITIS, subjects %” value (sequence A D B C (N = 20))?
A: Its value is 0.0%.

Q: What about the “PHARYNGITIS, subjects n” value (sequence A D B C (N = 20)) of the same substance?
A: The value was 0.

Q: And the “RASH, subjects %” value (sequence A D B C (N = 20))?
A: The value was 0.0%.

Q: And the “RASH, subjects n” value (sequence A D B C (N = 20))?
A: Its value is 0.

Q: And the “ABDOMINAL PAIN, subjects %” value (sequence B A C D (N = 18))?
A: The value was 0.0%.

Q: And the “ABDOMINAL PAIN, subjects n” value (sequence B A C D (N = 18))?
A: Its value is 0.

Q: What about the “CONJUNCTIVITIS, subjects %” value (sequence B A C D (N = 18)) of the same substance?
A: The value was 0.0%.

Q: What about the “CONJUNCTIVITIS, subjects n” value (sequence B A C D (N = 18)) of the same substance?
A: Its value is 0.

Q: And the “DIARRHEA, subjects %” value (sequence B A C D (N = 18))?
A: Its value is 0.0%.

Q: And the “DIARRHEA, subjects n” value (sequence B A C D (N = 18))?
A: The value was 0.

Q: And the “DIZZINESS, subjects %” value (sequence B A C D (N = 18))?
A: Its value is 0.0%.

Q: And the “DIZZINESS, subjects n” value (sequence B A C D (N = 18))?
A: The value was 0.

Q: And the “EDEMA, PALMAR, subjects %” value (sequence B A C D (N = 18))?
A: The value was 0.0%.

Q: What about the “EDEMA, PALMAR, subjects n” value (sequence B A C D (N = 18)) of the same substance?
A: The value was 0.

Q: What about the “ERYTHEMA, EXTERNAL NOSE, subjects %” value (sequence B A C D (N = 18)) of the same substance?
A: Its value is 0.0%.

Q: What about the “ERYTHEMA, EXTERNAL NOSE, subjects n” value (sequence B A C D (N = 18)) of the same substance?
A: The value was 0.

Q: And the “ERYTHEMA, PALMAR, subjects %” value (sequence B A C D (N = 18))?
A: The value was 0.0%.

Q: What about the “ERYTHEMA, PALMAR, subjects n” value (sequence B A C D (N = 18)) of the same substance?
A: The value was 0.

Q: And the “HEADACHE, subjects %” value (sequence B A C D (N = 18))?
A: Its value is 0.0%.

Q: And the “HEADACHE, subjects n” value (sequence B A C D (N = 18))?
A: The value was 0.

Q: What about the “HYPOTONIA, subjects %” value (sequence B A C D (N = 18)) of the same substance?
A: Its value is 0.0%.

Q: What about the “HYPOTONIA, subjects n” value (sequence B A C D (N = 18)) of the same substance?
A: The value was 0.

Q: And the “INJECTION SITE REACTION, subjects %” value (sequence B A C D (N = 18))?
A: Its value is 5.6%.

Q: And the “INJECTION SITE REACTION, subjects n” value (sequence B A C D (N = 18))?
A: Its value is 1.

Q: And the “LARYNGISMUS, subjects %” value (sequence B A C D (N = 18))?
A: Its value is 5.6%.

Q: What about the “LARYNGISMUS, subjects n” value (sequence B A C D (N = 18)) of the same substance?
A: The value was 1.

Q: What about the “LEG CRAMPS, subjects %” value (sequence B A C D (N = 18)) of the same substance?
A: Its value is 0.0%.

Q: What about the “LEG CRAMPS, subjects n” value (sequence B A C D (N = 18)) of the same substance?
A: Its value is 0.

Q: And the “NAUSEA AND VOMITING, subjects %” value (sequence B A C D (N = 18))?
A: Its value is 0.0%.

Q: And the “NAUSEA AND VOMITING, subjects n” value (sequence B A C D (N = 18))?
A: The value was 0.

Q: What about the “NAUSEA, subjects %” value (sequence B A C D (N = 18)) of the same substance?
A: Its value is 0.0%.

Q: What about the “NAUSEA, subjects n” value (sequence B A C D (N = 18)) of the same substance?
A: Its value is 0.

Q: What about the “Number of Subject With At Least one AE, %” value (sequence B A C D (N = 18)) of the same substance?
A: Its value is 22.2%.

Q: And the “Number of Subject With No AE, %” value (sequence B A C D (N = 18))?
A: Its value is 77.8%.

Q: And the “PARESTHESIA, subjects %” value (sequence B A C D (N = 18))?
A: The value was 11.1%.

Q: What about the “PARESTHESIA, subjects n” value (sequence B A C D (N = 18)) of the same substance?
A: The value was 2.
